Results reported in PubChem BioAssay AID292 (DTP/NCI, 2004).
Where “and” joins values, the source holds several entries; their conditions need not be identical. Equal entries are not always repeated. Toxic doses and inconclusive results are not listed.

Tested on: B6C3F1 mice, ip Sarcoma M5076, median survival T/C
Test: NCI In Vivo Anticancer Drug Screen. Data for tumor model Sarcoma M5076 (intraperitoneal) in B6C3F1 mice
Conditions: endpoint: median survival time, higher = longer survival
In short: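 Antitumour effect is judged in tumour-bearing mice by comparing survival after compound dosing against vehicle-only animals, reported as T/C.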

[1] = dose: 6.25 mg/kg/injection, schedule: Q04DX004 (ip), vehicle: saline with Tween-80
[2] = dose: 12.5 mg/kg/injection, schedule: Q04DX004 (ip), vehicle: saline with Tween-80
[3] = dose: 25.0 mg/kg/injection, schedule: Q04DX004 (ip), vehicle: saline with Tween-80
[4] = dose: 25.0 mg/kg/injection, schedule: Q04DX004 (ip), vehicle: saline
[5] = dose: 50.0 mg/kg/injection, schedule: Q04DX004 (ip), vehicle: saline
[6] = dose: 30.0 mg/kg/injection, schedule: Q04DX004 (ip), vehicle: saline
[7] = dose: 50.0 mg/kg/injection, schedule: Q04DX004 (ip), vehicle: saline with Tween-80

For `CN1C(=O)C(=O)N(Cc2ccco2)C1=O`, the T/C (dose: 31.25 mg/kg/injection, schedule: Q04DX004 (ip), vehicle: Klucel (hydroxypropylcellulose) (HPC)) was 106 % of control, the T/C (dose: 62.5 mg/kg/injection, schedule: Q04DX004 (ip), vehicle: Klucel (hydroxypropylcellulose) (HPC)) was 106 % of control and the T/C (dose: 125.0 mg/kg/injection, schedule: Q04DX004 (ip), vehicle: Klucel (hydroxypropylcellulose) (HPC)) was 99 % of control. The T/C (dose: 250.0 mg/kg/injection, schedule: Q04DX004 (ip), vehicle: Klucel (hydroxypropylcellulose) (HPC)) was 97 % of control and the T/C (dose: 500.0 mg/kg/injection, schedule: Q04DX004 (ip), vehicle: Klucel (hydroxypropylcellulose) (HPC)) was 100 % of control.
`CN(C)c1ccc2c(Nc3ccc(NS(C)(=O)=O)cc3)c3ccc(N(C)C)cc3nc2c1` was tested, and the T/C (dose: 21.6 mg/kg/injection, schedule: Q04DX004 (ip), vehicle: Klucel (hydroxypropylcellulose) (HPC)) was 116 % of control, the T/C (dose: 50.0 mg/kg/injection, schedule: Q04DX004 (ip), vehicle: Klucel (hydroxypropylcellulose) (HPC)) was 151 % of control and the T/C (dose: 100.0 mg/kg/injection, schedule: Q04DX004 (ip), vehicle: Klucel (hydroxypropylcellulose) (HPC)) was 159 % of control. For the same compound, the T/C (dose: 166.7 mg/kg/injection, schedule: Q04DX004 (ip), vehicle: Klucel (hydroxypropylcellulose) (HPC)) was 172 % of control.
With `CCOC(=O)/C=C1\CCC(C)n2c1nccc2=O` (centres undefined) the T/C (dose: 37.5 mg/kg/injection, schedule: Q04DX004 (ip), vehicle: saline with Tween-80) was 102 % of control, the T/C (dose: 75.0 mg/kg/injection, schedule: Q04DX004 (ip), vehicle: saline with Tween-80) was 86 % of control and the T/C (dose: 150.0 mg/kg/injection, schedule: Q04DX004 (ip), vehicle: saline with Tween-80) was 96 % of control. The T/C (dose: 300.0 mg/kg/injection, schedule: Q04DX004 (ip), vehicle: saline with Tween-80) was 101 % of control and the T/C (dose: 600.0 mg/kg/injection, schedule: Q04DX004 (ip), vehicle: saline with Tween-80) was 106 % of control.
In the case of `c1ccc2c(c1)oc1cc3c(cc12)n1nnnc1c1cccn31`, the T/C (dose: 3.12 mg/kg/injection, schedule: Q04DX004 (ip), vehicle: saline with Tween-80) is reported as 90 % of control, the T/C [1] is reported as 95 % of control and the T/C [2] is reported as 90 % of control. The T/C [3] was 87 % of control.
`O=C1CN2Cc3c(sc4c3CCCC4)N=C2N1` was tested, and the T/C (dose: 37.5 mg/kg/injection, schedule: Q04DX004 (ip), vehicle: Klucel (hydroxypropylcellulose) (HPC)) was 103 % of control, the T/C (dose: 75.0 mg/kg/injection, schedule: Q04DX004 (ip), vehicle: Klucel (hydroxypropylcellulose) (HPC)) was 104 % of control and the T/C (dose: 150.0 mg/kg/injection, schedule: Q04DX004 (ip), vehicle: Klucel (hydroxypropylcellulose) (HPC)) was 100 % of control. For the same compound, the T/C (dose: 300.0 mg/kg/injection, schedule: Q04DX004 (ip), vehicle: Klucel (hydroxypropylcellulose) (HPC)) was 103 % of control and the T/C (dose: 600.0 mg/kg/injection, schedule: Q04DX004 (ip), vehicle: Klucel (hydroxypropylcellulose) (HPC)) was 100 % of control.
`N=C(N)Sc1ccccn1` was tested, and the T/C (dose: 62.5 mg/kg/injection, schedule: Q04DX004 (ip), vehicle: saline) was 97 % of control, the T/C (dose: 125.0 mg/kg/injection, schedule: Q04DX004 (ip), vehicle: saline) was 101 % of control and the T/C (dose: 250.0 mg/kg/injection, schedule: Q04DX004 (ip), vehicle: saline) was 90 % of control.
With `COC1N(C2CC(O)C(CO)O2)C(=O)NC(=O)C1(F)Br` (centres undefined) the T/C [4] was 108 % of control, the T/C [5] was 113 % of control and the T/C (dose: 100.0 mg/kg/injection, schedule: Q04DX004 (ip), vehicle: saline) was 112 % of control. For the same compound, the T/C (dose: 200.0 mg/kg/injection, schedule: Q04DX004 (ip), vehicle: saline) was 114 % of control and the T/C (dose: 400.0 mg/kg/injection, schedule: Q04DX004 (ip), vehicle: saline) was 113 % of control.
With `CC1Oc2cc3c(-c4c(O)cc(O)c5c(O)c6c(cc45)OC(C)C(C)C6=O)c(O)cc(O)c3c(O)c2C(=O)C1C` (centres undefined) the T/C (dose: 0.62 mg/kg/injection, schedule: Q01DX009 (ip), vehicle: suspension in saline) was 102 % of control, the T/C (dose: 1.25 mg/kg/injection, schedule: Q01DX009 (ip), vehicle: suspension in saline) was 109 % of control and the T/C (dose: 1.25 mg/kg/injection, schedule: Q04DX004 (ip), vehicle: suspension in saline) was 151 % of control. The T/C (dose: 1.8 mg/kg/injection, schedule: Q04DX004 (ip), vehicle: suspension in saline) was 97 % of control and 115 % of control, the T/C (dose: 3.0 mg/kg/injection, schedule: Q04DX004 (ip), vehicle: suspension in saline) was 107 % of control and 114 % of control and the T/C (dose: 8.33 mg/kg/injection, schedule: Q04DX004 (ip), vehicle: suspension in saline) was 123 % of control.
With `O=C(O)C(O)C(O)C1[O][Sb][O]C1C(=O)O` (centres undefined) the T/C (dose: 9.37 mg/kg/injection, schedule: Q04DX004 (ip), vehicle: saline) was 100 % of control, the T/C (dose: 9.38 mg/kg/injection, schedule: Q04DX004 (ip), vehicle: saline) was 107 % of control and the T/C (dose: 18.75 mg/kg/injection, schedule: Q04DX004 (ip), vehicle: saline) was 99 % of control and 110 % of control. The T/C (dose: 37.5 mg/kg/injection, schedule: Q04DX004 (ip), vehicle: saline) was 110 % of control and 114 % of control and the T/C (dose: 75.0 mg/kg/injection, schedule: Q04DX004 (ip), vehicle: saline) was 99 % of control and 111 % of control.
For `OCCOCCN1CCN(CCCN2c3ccccc3Sc3ccc(C(F)(F)F)cc32)CC1`, the T/C (dose: 0.75 mg/kg/injection, schedule: Q04DX004 (ip), vehicle: saline) was 105 % of control, the T/C (dose: 1.5 mg/kg/injection, schedule: Q04DX004 (ip), vehicle: saline) was 110 % of control and the T/C (dose: 3.0 mg/kg/injection, schedule: Q04DX004 (ip), vehicle: saline) was 91 % of control. The T/C (dose: 6.0 mg/kg/injection, schedule: Q04DX004 (ip), vehicle: saline) was 105 % of control, the T/C (dose: 7.5 mg/kg/injection, schedule: Q04DX004 (ip), vehicle: saline) was 96 % of control and 100 % of control and 103 % of control and the T/C (dose: 12.0 mg/kg/injection, schedule: Q04DX004 (ip), vehicle: saline) was 104 % of control. For the same compound, the T/C (dose: 15.0 mg/kg/injection, schedule: Q04DX004 (ip), vehicle: saline) was 102 % of control and 107 % of control and 119 % of control, the T/C [6] was 101 % of control and 107 % of control and 122 % of control and the T/C (dose: 60.0 mg/kg/injection, schedule: Q04DX004 (ip), vehicle: saline) was 96 % of control (2×) and 101 % of control.
For `Cc1c(O)c(O)c(C)c(CCN)c1O`, the T/C (dose: 31.0 mg/kg/injection, schedule: Q04DX004 (ip), vehicle: saline with Tween-80) was 100 % of control, the T/C (dose: 62.0 mg/kg/injection, schedule: Q04DX004 (ip), vehicle: saline with Tween-80) was 104 % of control and the T/C (dose: 112.0 mg/kg/injection, schedule: Q04DX004 (ip), vehicle: saline with Tween-80) was 94 % of control.
For `O=C(Nc1ccccc1)c1cc2ccccc2oc1=O`, the T/C (dose: 28.13 mg/kg/injection, schedule: Q04DX004 (ip), vehicle: saline with Tween-80) was 94 % of control and the T/C (dose: 56.25 mg/kg/injection, schedule: Q04DX004 (ip), vehicle: saline with Tween-80) was 92 % of control.
For `CCC1(O)C(=O)OCc2c1cc1n(c2=O)Cc2cc3cc(N)ccc3nc2-1` (centres undefined), the T/C (dose: 7.5 mg/kg/injection, schedule: Q04DX004 (ip), vehicle: suspension in saline) was 160 % of control, the T/C (dose: 9.0 mg/kg/injection, schedule: Q04DX004 (ip), vehicle: suspension in saline) was 174 % of control and the T/C (dose: 15.0 mg/kg/injection, schedule: Q04DX004 (ip), vehicle: suspension in saline) was 170 % of control and 231 % of control. For the same compound, the T/C (dose: 25.0 mg/kg/injection, schedule: Q04DX004 (ip), vehicle: suspension in saline) was 150 % of control and the T/C (dose: 42.0 mg/kg/injection, schedule: Q04DX004 (ip), vehicle: suspension in saline) was 90 % of control.
`O=C(NC(Cc1ccc(I)cc1)C(=O)O)c1ccc(Br)cc1` (centres undefined) was tested, and the T/C (dose: 25.0 mg/kg/injection, schedule: Q04DX004 (ip), vehicle: sodium bicarbonate) was 102 % of control, the T/C (dose: 50.0 mg/kg/injection, schedule: Q04DX004 (ip), vehicle: sodium bicarbonate) was 105 % of control and the T/C (dose: 100.0 mg/kg/injection, schedule: Q04DX004 (ip), vehicle: sodium bicarbonate) was 97 % of control. For the same compound, the T/C (dose: 200.0 mg/kg/injection, schedule: Q04DX004 (ip), vehicle: sodium bicarbonate) was 104 % of control and the T/C (dose: 400.0 mg/kg/injection, schedule: Q04DX004 (ip), vehicle: sodium bicarbonate) was 90 % of control.
In the case of `C/C(=N\NC(=S)N1CC2CCC(CC2)C1)c1cccc(C)n1`, the T/C [1] is reported as 104 % of control and 107 % of control, the T/C [2] is reported as 101 % of control and 106 % of control and 116 % of control and the T/C [3] is reported as 104 % of control and 110 % of control and 115 % of control. The T/C [7] was 101 % of control and 107 % of control and 119 % of control.
In the case of `O=[N+]([O-])c1ccc(C=C2C=CN(CCO)C=C2)cc1`, the T/C [3] is reported as 115 % of control, the T/C [7] is reported as 115 % of control and the T/C (dose: 100.0 mg/kg/injection, schedule: Q04DX004 (ip), vehicle: saline with Tween-80) is reported as 106 % of control.
For `O=NNc1ccccn1`, the T/C (dose: 3.13 mg/kg/injection, schedule: Q04DX004 (ip), vehicle: saline) was 109 % of control, the T/C (dose: 6.25 mg/kg/injection, schedule: Q04DX004 (ip), vehicle: saline) was 117 % of control and the T/C (dose: 18.0 mg/kg/injection, schedule: Q04DX004 (ip), vehicle: saline) was 172 % of control. For the same compound, the T/C [4] was 160 % of control, the T/C [6] was 156 % of control and the T/C [5] was 184 % of control.
